Test results: US20220088031A1, “METHODS AND COMPOSITIONS FOR TREATING RESISTANT AND RECURRENT FORMS OF CANCER” (Health Research, Inc., priority 2019, published 2022)

Tests used:
Format in all cases: cell-based, human
[1] = system: E006AA cells; assay: Cell death quantification, Trypan blue exclusion assay
Method: Cell viability assay: PCa cells (5×10^4 cells/well) were seeded on 6-well cell culture plates and incubated with DOC (1-20 nM) for 24 hrs. Floating and attached cells were collected using trypsinization. Live and dead cells were counted under a light microscope using a trypan blue exclusion assay.

[2] = system: LNCaP cells; assay: Immunoblot analysis of CC and Drp1 in cytosolic and mitochondrial fractions; conditions: CA PCa cells
Method: Subcellular fractionation for the preparation of cytosolic and mitochondrial fractions: Cells were seeded on 15 cm cell culture plates followed by treatment with various compounds for the preparation of cytosolic and mitochondrial fractions as described. Cells were harvested via gentle scraping, washed twice with ice cold 1×PBS, and resuspended in homogenization buffer (20 mM HEPES, pH 7.4; 10 mM KCl; 1.5 mM MgCl2; 1 mM EDTA; 1 mM EGTA; 250 mM sucrose) supplemented with freshly added 1× protease inhibitor cocktail and 1 mM DTT. Cells were incubated in homogenization buffer for 30 min in ice and homogenized using a dounce homogenizer (˜25 strokes using pestle A). Cell homogenates were pre-cleared of unbroken cells and debris using centrifugation at 1000 g for 10 min. The supernatant was collected in new tubes and centrifuged at 12000 rpm for 20 min to obtain a mitochondrial pellet, which was washed 3 times with homogenization buffer and lysed in NP40 buffer, and stored as the mitochondrial fraction. […]
Immunoblotting: Immunoblotting was performed as described previously. […] Protein content was quantified using a micro BCA protein estimation kit (Thermo Scientific, Waltham, Mass.; Cat #23235). […] After washing with PBS-T, proteins were detected using Clarity chemiluminescent reagent (BioRad, Hercules, Calif.; Cat #1705061) and X-Ray films (ASI, Fort Lauderdale, Fla.; Cat #XR1570). […]

[3] = system: LNCaP, DU145, PC-3 cells; assay: Clonogenic assay; conditions: exposure of DOC; CA PCa cells
Method: (§1) Clonogenic assay: PCa cells were seeded in each well of 6 well cell culture plates. Cells were treated and plates were incubated in a CO2 cell culture incubator for 6 more days. Colonies were fixed in 10% formalin first and stained with 0.5% crystal violet solution. Plates were dried and pictures were captured using a Gel documentation system and Coomassie blue filter (Bio Rad, Hercules, Calif.).

[4] = system: E006AA cells; assay: Clonogenic assay; conditions: exposure of DOC; AA PCa cells
Method: as §1

[5] = system: E006AA cells; assay: Immunoblot analysis of CC in cytosolic and mitochondrial fractions; conditions: DOC 24 hrs; AA PCa cells
Method: Subcellular fractionation for the preparation of cytosolic and mitochondrial fractions: Cells were seeded on 15 cm cell culture plates followed by treatment with various compounds for the preparation of cytosolic and mitochondrial fractions as described. Cells were harvested via gentle scraping, washed twice with ice cold 1×PBS, and resuspended in homogenization buffer (20 mM HEPES, pH 7.4; 10 mM KCl; 1.5 mM MgCl2; 1 mM EDTA; 1 mM EGTA; 250 mM sucrose) supplemented with freshly added 1× protease inhibitor cocktail and 1 mM DTT. Cells were incubated in homogenization buffer for 30 min in ice and homogenized using a dounce homogenizer (˜25 strokes using pestle A). Cell homogenates were pre-cleared of unbroken cells and debris using centrifugation at 1000 g for 10 min. The supernatant was collected in new tubes and centrifuged at 12000 rpm for 20 min to obtain a mitochondrial pellet, which was washed 3 times with homogenization buffer and lysed in NP40 buffer, and stored as the mitochondrial fraction. The supernatant was ultra-centrifuged to obtain purified cytosol.
(§2) Immunoblotting: Immunoblotting was performed as described previously. Protein lysates were prepared using a lysis in NP-40 buffer (50 mM Tris-HCl pH 7.4, 150 mM NaCl, 1 mM EDTA, 1 mM EGTA, 1% NP-40) supplemented with protease and phosphatase inhibitor cocktail. Protein content was quantified using a micro BCA protein estimation kit (Thermo Scientific, Waltham, Mass.; Cat #23235). Protein samples were resolved on 4-20% Criterion gels, transferred on nitrocellulose membranes (BioRad, Hercules, Calif.) and subjected to immunoblotting. Membranes were blocked in 5% fat free dry milk (Blotto, Santa Cruz, Dallas, Tex.; Cat #sc-2324) prepared in PBS-T (Tween-20) and incubated overnight in primary antibodies (1:1000 dilution) at 4° C. with continuous shaking. After washing with PBS-T, membranes were incubated in HRP conjugated anti-mouse or anti-rabbit secondary antibody at room temperature for 1 hr. After washing with PBS-T, proteins were detected using Clarity chemiluminescent reagent (BioRad, Hercules, Calif.; Cat #1705061) and X-Ray films (ASI, Fort Lauderdale, Fla.; Cat #XR1570). Membranes were stripped using stripping buffer and probed with HRP conjugated beta-actin antibody to ensure equal loading of proteins.

[6] = system: E006AA cells; assay: Caspase-3 (DEVDase) activity assay; conditions: DOC 24 hrs; AA PCa cells compared to CA PCa cells
Method: Caspase-3 (DEVDase) activity assay: PCa cell lysates prepared in NP40 lysis buffer were incubated with DEVD-AFC (caspase-3 substrate) at 37° C. for 90 min in caspase activity assay buffer (50 mM HEPES pH 7.4, 150 mM NaCl, 1% CHAPS, 1 mM EDTA, 1 mM DTT, 50% glycerol). Fluorescence intensity was detected using a Synergy microplate reader at excitation and emission wavelengths of 400 nm and 508 nm, respectively. Arbitrary fluorescence units were normalized with protein content of cell lysates and represented as fold change compared to control groups.

[7] = system: E006AA cells; assay: Cell cycle analysis, PI staining; conditions: DOC 24 hrs; AA PCa cells
Method: (§3) Cell cycle analysis: Cell cycle phases in LNCaP and E006AA cells were analyzed using Propidium Iodide (PI) staining. Cells were treated with DOC for 24 hrs, fixed in 70% ethanol, stained with PI staining solution (0.1% sodium citrate, 0.2 mg/ml RNAse, 0.05 mg/ml propidium iodide, 0.2% NP 40, 1N HCl), and analyzed using flow cytometry. Data were analyzed using FACS-DIVA software and represented as % cells in each cell cycle phase.

[8] = system: LNCaP cells; assay: Cell cycle analysis, PI staining; conditions: DOC 24 hrs; CA PCa cells
Method: as §3

[9] = system: p-Drp1^S616 in LNCaP cells; assay: Immunoblot of p-Akt^S473 and p-Drp1^S616 after AKT inhibitor; conditions: Wort 1 μM
Method: as §2

O=C(O)C(=O)CBr [3-BrPA, 3-bromopyruvate]
cell death ([1]; in combination with DOC (24 hrs)): induced dose-dependent cell death

CC(=O)O[C@@]12CO[C@@H]1C[C@H](O)[C@@]1(C)C(=O)[C@H](O)C3=C(C)[C@@H](OC(=O)[C@H](O)[C@@H](NC(=O)OC(C)(C)C)c4ccccc4)C[C@@](O)([C@@H](OC(=O)c4ccccc4)[C@H]21)C3(C)C [DOC, Docetaxel]
CC expression and release from mitochondria to cytosol ([2]; DOC 24 hrs): induced CC expression and release from mitochondria to the cytosolic compartment
Drp1 localization ([2]; in response to DOC): translocated to mitochondria
colony forming ability (CFA) [3]: abolished CFA
colony forming ability (CFA) [4]: not AA PCa
CC expression and release from mitochondria to cytosol [5]: not in AA PCa cells
DOC-induced caspase activation [6]: reduced in various AA PCa cells compared to CA PCa cells
effect on the cell cycle [7]: cell cycle arrest at G2/M phase
effect on the cell cycle [8]: cell cycle arrest at G2/M phase
DOC-induced cell death ([1]; DOC 24 hrs, AA PCa cells compared to CA PCa cells): reduced in various AA PCa cells compared to CA PCa cells

COC[C@H]1OC(=O)c2coc3c2[C@@]1(C)C1=C(C3=O)[C@@H]2CCC(=O)[C@@]2(C)C[C@H]1OC(C)=O [wortmanin]
Drp1 phosphorylation at S616 [9]: Inhibition of Drp1 phosphorylation at S616
